Values after ≈ are worked out from the molar mass of the structure shown. Values joined by “and” are separate entries in the source; they are usually repeats but may differ in a detail not shown here. Equal values may be shown once. Read-outs that look alike come from different tables or passages of the source.
Columns and labels:
[1] = system: Propionebecterium acnes NCTC 737; assay: MIC vs. panel of anaerobes; type: cell-based
[2] = system: Peptostreptococcus anaerobicus; assay: MIC vs. panel of anaerobes; type: cell-based; conditions: Peptostreptococcus anaerobicus; read-out: MIC
[3] = system: Clostridium perfringens NCTC 523; assay: microbe, parasite or virus in culture; type: cell-based; conditions: NCTC523
[4] = system: Bacteroides melanogenicus NCTC 9336; assay: MIC vs. panel of anaerobes; type: cell-based; conditions: NCTC9336; Bacteroides melanogenicus NCTC 9336; read-out: MIC
B. fragilis NCTC 10581 = assay: MIC/MBC broth microdilution, strain A; type: cell-based; conditions: Bacteroides fragilis, NCTC10581, 48 h; for MIC: 37° C., anaerobic; for MBC: 99.9% reduction in viable count after 48 h
B. fragilis NCTC 9344 = assay: MIC/MBC broth microdilution, strain C; type: cell-based, Bacteroides fragilis; conditions: for MBC: 99.9% reduction in viable count after 48 h; for MIC: 37° C., anaerobic
[5] = system: Fusobacterium necrophorum ATCC 11295; assay: MIC vs. panel of anaerobes; type: cell-based; conditions: ATCC11295
[6] = system: B. fragilis MZ-R ATCC 11295; assay: MIC/MBC broth microdilution, strain D; type: cell-based; conditions: Bacteroides fragilis, ATCC11295, 48 h; for MBC: 99.9% reduction in viable count after 48 h
[7] = system: Campylobacter fetus ss.jejuni ATCC 29428; assay: MIC vs. panel of anaerobes; type: cell-based; conditions: ATCC29428
[8] = system: Clostridium difficile NCIB 10666; assay: MIC vs. panel of anaerobes; type: cell-based; conditions: Clostridioides difficile, NCIB10666; Clostridium difficile NCIB 10666; read-out: MIC
B. fragilis WS-1 = assay: MIC/MBC broth microdilution, strain E; type: cell-based, Bacteroides fragilis; conditions: for MIC: 37° C., anaerobic; for MBC: 99.9% reduction in viable count after 48 h
[9] = system: Clostridium perfringens NCTC 8237; assay: microbe, parasite or virus in culture; type: cell-based; conditions: NCTC8237
[10] = system: Clostridium difficile Cytotoxic 1; assay: MIC vs. panel of anaerobes; type: cell-based; conditions: Clostridioides difficile
B. fragilis NCTC 9343 = assay: MIC/MBC broth microdilution, strain B; type: cell-based; conditions: Bacteroides fragilis, NCTC9343, 48 h; for MIC: 37° C., anaerobic; for MBC: 99.9% reduction in viable count after 48 h
B. Fragilis ATCC 23745 = conditions: for ED (1 log reduction): Bacteroides fragilis, ATCC23745, in Mus musculus, po
[11] = system: Propionebacterium acnes NCTC 7337; assay: MIC vs. panel of anaerobes; type: cell-based
[12] = Bacteroides fragilis, NCTC9344, 48 h, read-out: MBC
[13] = Bacteroides fragilis, NCTC9344, 48 h, 48 h
[14] = strain D (MZ-R), 48 h, 37° C., anaerobic, read-out: MIC
[15] = Bacteroides fragilis, WS1, 48 h, read-out: MIC
[16] = Bacteroides fragilis, WS1, 48 h
[17] = 48 h, read-out: Dose giving 1 log reduction, p.o., after infection and twice daily for 2 days, 1 log (90%) reduction of CFU/ml liver homogenate vs untreated, compound of Example
[18] = Bacteroides fragilis, NCTC9344, 48 h, read-out: MIC
[19] = Fusobacterium necrophorum ATCC 11295, read-out: MIC
[20] = Bacteroides fragilis, WS1, 48 h, 48 h

SMILES | MIC [1] [µg/mL] | MIC [2] [µg/mL] | MIC [3] [µg/mL] | MIC [4] [µg/mL] | MIC (B. fragilis NCTC 10581; read-out: MIC) [µg/mL] | MBC (B. fragilis NCTC 10581) [µg/mL] | MBC (B. fragilis NCTC 9344; [12]) [µg/mL] | MIC (B. fragilis NCTC 9344; [13]) [µg/mL] | MBC ([6]; strain D (MZ-R)) [µg/mL] | MIC [7] [µg/mL] | MIC [8] [µg/mL] | MIC [9] [µg/mL] | MIC [10] [µg/mL] | MIC (B. fragilis NCTC 9343; read-out: MIC) [µg/mL] | MBC (B. fragilis NCTC 9343) [µg/mL] | ED (1 log reduction) (B. Fragilis ATCC 23745; [17]) [mg/kg] | MIC [11] [µg/mL] | MIC [5, 19] [µg/mL] | MIC (B. fragilis NCTC 9343; 48 h) [µg/mL] | MIC [6] [µg/mL] | other results
[O-][N+]1=C(c2ccccc2)C2=NCCN2c2cc(N3CCN(Cc4ccccc4)CC3)ccc21 [Example 6, 1,2-Dihydro-4-phenyl-8-(4-phenylmethylpiperazinyl)imidazo[1,2-a]quinoxaline5-oxide] | 50 (≈ 114 µM) | 100 (≈ 229 µM) | 12.5 (≈ 28.6 µM) | 50 (≈ 114 µM) | 25 (≈ 57.1 µM) | 25 (≈ 57.1 µM) | 25 (≈ 57.1 µM) | 12.5 (≈ 28.6 µM) | 25 (≈ 57.1 µM) | 100 (≈ 229 µM) | < 0.8 | 12.5 (≈ 28.6 µM) | 3.1 (≈ 7.08 µM) | 50 (≈ 114 µM) | 50 (≈ 114 µM) | 6.27 | 50 (≈ 114 µM) | – | – | – | MIC ([5]; Fusobacterium necrophorum): 12.5 µg/mL (≈ 28.6 µM); MIC [6, 14]: 25 µg/mL (≈ 57.1 µM); MIC (B. fragilis WS-1; [15]): 25 µg/mL (≈ 57.1 µM); MBC (B. fragilis WS-1; [16]): 25 µg/mL (≈ 57.1 µM)
CC(=O)N1CCN(c2ccc3c(c2)N2CCN=C2C(c2ccccc2)=[N+]3[O-])CC1 [Example 7, 8-(4-Acetylpiperazinyl)-1,2-dihydro-4-phenylimidazo[1,2-a]quinoxaline 5-oxide] | 25 (≈ 64.2 µM) | 12.5 (≈ 32.1 µM) | 1.5 (≈ 3.85 µM) | 6.2 (≈ 15.9 µM) | 6.2 (≈ 15.9 µM) | 6.2 (≈ 15.9 µM) | 6.2 (≈ 15.9 µM) | – | 1.5 (≈ 3.85 µM) | 12.5 (≈ 32.1 µM) | < 0.8 | 3.1 (≈ 7.96 µM) | < 0.8 | – | 3.1 (≈ 7.96 µM) | 11.3 | 12.5 (≈ 32.1 µM) | 3.1 (≈ 7.96 µM) | 3.1 (≈ 7.96 µM) | – | MIC (B. fragilis NCTC 9344; [18]): 6.2 µg/mL (≈ 15.9 µM); MIC [6, 14]: 1.5 µg/mL (≈ 3.85 µM); MIC (B. fragilis WS-1; [15]): 6.2 µg/mL (≈ 15.9 µM); MBC (B. fragilis WS-1; [16]): 6.2 µg/mL (≈ 15.9 µM)
[O-][N+]1=C(c2ccccc2)C2=NCCN2c2cc(N3CCN(c4ccccc4)CC3)ccc21 [Example 8, 1,2-Dihydro-4-phenyl-8-(4-phenylpiperazinyl)imidazo[1,2-a]quinoxaline 5-oxide] | > 100 | > 100 | 1.5 (≈ 3.54 µM) | > 100 | 1.5 (≈ 3.54 µM) | – | – | < 0.8 | – | > 100 | < 0.8 | 3.1 (≈ 7.32 µM) | < 0.8 | 1.5 (≈ 3.54 µM) | – | – | > 100 | 3.1 (≈ 7.32 µM) | – | < 0.8 | MIC (B. fragilis WS-1; [20]): 3.1 µg/mL (≈ 7.32 µM)
CN1CCN(c2ccc3c(n2)N2CCN=C2C(c2ccccc2)=[N+]3[O-])CC1 [Example 9, 1,2-Dihydro-8-(4-methylpiperazinyl)-4-phenylimidazo[1,2-a]pyrido[3,2-e]pyrazine 5-oxide] | – | – | – | – | – | 0.8 (≈ 2.21 µM) | 0.8 (≈ 2.21 µM) | 0.8 (≈ 2.21 µM) | 0.8 (≈ 2.21 µM) | – | – | – | – | – | 0.8 (≈ 2.21 µM) | 4.48 | – | – | 0.8 (≈ 2.21 µM) | 0.8 (≈ 2.21 µM) | MIC (B. fragilis NCTC 10581; 48 h): 0.8 µg/mL (≈ 2.21 µM)
[O-][N+]1=C(c2ccccc2)C2=NCCN2c2nc(N3CCN(Cc4ccccc4)CC3)ccc21 [Example 17, 1,2-Dihydro-4-phenyl-8-(4-phenylmethylpiperazinyl)imidazo[1,2-a]pyrido[3,2-e]pyrazine 5-oxide] | – | – | – | – | – | – | – | – | – | – | – | – | – | – | – | 3.59 | – | – | – | – | –
Cc1ncc([N+](=O)[O-])n1CCO [Metronidazole, reference compound] | > 100 | > 100 | < 0.8 | > 100 | 0.6 (≈ 3.51 µM) | 0.8 (≈ 4.67 µM) | 0.6 (≈ 3.51 µM) | < 0.8 | – | > 100 | – | 1.5 (≈ 8.76 µM) | < 0.8 | 0.6 (≈ 3.51 µM) | – | – | > 100 | 6.2 (≈ 36.2 µM) | 0.8 (≈ 4.67 µM) | 3.1 (≈ 18.1 µM) | MIC (B. fragilis NCTC 10581; 48 h): < 0.8 µg/mL; MBC (B. fragilis NCTC 9344): 0.8 µg/mL and < 0.8 µg/mL; MIC (B. fragilis NCTC 9344; 48 h): 0.8 µg/mL (≈ 4.67 µM); MIC (B. fragilis NCTC 9344; [18]): 0.6 µg/mL (≈ 3.51 µM); MIC (B. fragilis WS-1; 48 h): < 0.8 µg/mL and 0.8 µg/mL; MIC (B. fragilis WS-1; [20]): 1.5 µg/mL (≈ 8.76 µM); reduction in B. fragilis (B. Fragilis ATCC 23745; 40 mg/kg (p.o.)): 3-3.5 log10; ED (1 log reduction) (B. Fragilis ATCC 23745; read-out: Dose giving 1 log reduction, Metronidazole, p.o., positive control beside the compound of the same line): 1.64 mg/kg

From patent US4696928A, “Substituted dihydroimidazo[1,2-a]quinoxalines” (G. D. Searle & Co., priority 1985, dated 1987)
